Results as given in publication PMC4111244 (Bioorganic & medicinal chemistry letters, 2013).
Read-outs that look alike come from different tables or passages of the source.

Tests used:
T. cruzi amastigotes [1] = test: Activity against T. cruzi amastigotes in culture; format: cell-based, Trypanosoma cruzi; details: for fold drop in potency on replacement of the aniline moiety: versus amino compound (compound 2); for EC50: Trypanosoma cruzi, read-out: T. cruzi EC50(nM), T. cruzi amastigotes in culture; for fold increase in potency compared with compound 12: T. cruzi cultures
T. cruzi = details: ref previous studies; cited from earlier work
[2] = target: T. cruzi sterol 14α-demethylase (CYP51) (Trypanosoma cruzi, UniProt Q7Z1V1); test: Spectral response; details: P450 2.2 μM; titration range 0.4-7.6 μM
T. cruzi amastigotes [3] = details: read-out: EC50 against T.cruzi in culture; cited from earlier work

Chain of T. cruzi sterol 14α-demethylase (CYP51) (Q7Z1V1 whole entry): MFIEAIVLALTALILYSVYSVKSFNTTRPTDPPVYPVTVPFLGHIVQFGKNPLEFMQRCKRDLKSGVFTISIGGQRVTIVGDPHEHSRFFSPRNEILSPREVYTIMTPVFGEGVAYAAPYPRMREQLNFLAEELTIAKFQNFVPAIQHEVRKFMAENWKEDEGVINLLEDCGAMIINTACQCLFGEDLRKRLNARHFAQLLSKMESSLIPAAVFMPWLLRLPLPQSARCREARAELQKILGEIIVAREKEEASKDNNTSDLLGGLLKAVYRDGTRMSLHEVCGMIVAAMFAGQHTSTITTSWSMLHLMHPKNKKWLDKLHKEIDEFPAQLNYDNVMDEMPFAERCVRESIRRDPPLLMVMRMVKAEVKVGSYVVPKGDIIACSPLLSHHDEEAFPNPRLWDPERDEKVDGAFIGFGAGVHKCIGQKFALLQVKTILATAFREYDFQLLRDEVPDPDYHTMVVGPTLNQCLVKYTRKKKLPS

Cc1cc(NCc2cncn2Cc2ccc(-c3ccccc3)cc2N)ccc1Cl [Compound 36j]
activity against T.cruzi amastigotes (in words) (T. cruzi amastigotes [1]): excellent activity

COc1cc(-c2ccccc2)ccc1Cn1cncc1CNc1ccc(Cl)c(-c2ccccc2)c1 [Compound 24n]
fold drop in potency on replacement of the aniline moiety (T. cruzi amastigotes [1]): > 27 fold

Nc1cc(-c2ccccc2)ccc1Cn1cncc1CNc1ccc(Cl)c(-n2ccnc2)c1 [Compound 36h]
EC50 (T. cruzi amastigotes [1]): < 10 nM

Fc1ccc(NCc2cncn2Cc2ccc(-c3ccccc3)cc2F)cc1 [Compound 24b]
fold drop in potency compared with compound 12 (T. cruzi amastigotes [1]; against T. cruzi, versus compound 12): less than 4 fold

Nc1cc(-c2ccccc2)ccc1Cn1cncc1CNc1ccc(-c2nc3ccccc3s2)c(-c2ccccc2)c1 [Compound 2]
fold increase in potency compared with compound 12 (T. cruzi amastigotes [1]; versus compound 12): 20 fold
efficacy in the acute model of the disease (T. cruzi): highly efficacious

Nc1cc(-c2ccccc2)ccc1Cn1cncc1CNc1ccc(Cl)c(Cl)c1 [Compound 36f]
EC50 (T. cruzi amastigotes [1]): < 10 nM

O=C(O)c1cc(-c2ccccc2)ccc1Cn1cncc1CNc1ccc(-c2nc3ccccc3s2)c(-c2ccccc2)c1 [Compound 24q]
fold drop in potency on replacement of the aniline moiety (T. cruzi amastigotes [1]): > 27 fold

Nc1cc(-c2ccccc2)ccc1Cn1cncc1CNc1ccc(Cl)cc1 [Compound 36k]
activity against T.cruzi amastigotes (in words) (T. cruzi amastigotes [1]): excellent activity

COc1ccc(NCc2cncn2Cc2ccc(-c3ccccc3)cc2N)nc1-c1ccccc1 [Compound 26c]
binding to the haem moiety in the CYP51 active site (spectral type) [2]: Soret Type II binding spectra

CC[C@@H]([C@H](C)O)n1ncn(-c2ccc(N3CCN(c4ccc(OC[C@@H]5CO[C@@](Cn6cncn6)(c6ccc(F)cc6F)C5)cc4)CC3)cc2)c1=O [posaconazole]
EC50 (T. cruzi amastigotes [3]): < 1 nM

Nc1ccc(-c2cc(NCc3cncn3Cc3ccc(-c4ccccc4)cc3)ccc2-c2nc3ccccc3s2)cc1 [Compound 12k]
fold increase in potency compared with compound 12 (T. cruzi amastigotes [1]; versus compound 12): > 10 fold

Oc1cc(-c2ccccc2)ccc1Cn1cncc1CNc1ccc(Cl)c(-c2ccccc2)c1 [Compound 24o]
fold drop in potency on replacement of the aniline moiety (T. cruzi amastigotes [1]): > 27 fold

Fc1cc(-c2ccccc2)ccc1Cn1cncc1CNc1ccc(F)c(-c2ccccc2)c1 [Compound 24a]
EC50 (T. cruzi amastigotes [1]): < 20 nM

Nc1cc(-c2ccccc2)ccc1Cn1cncc1CNc1ccc(F)cc1 [Compound 36p]
activity against T.cruzi amastigotes (in words) (T. cruzi amastigotes [1]): excellent activity
